Laboratory results: US9624209B2, “Substituted phenylureas and phenylamides as vanilloid receptor ligands” (Gruenenthal GmbH, priority 2009, dated 2017)

What follows are compounds tested against T1, vanilloid receptor 1 (VR1/TRPV1 receptor) (Homo sapiens, UniProt Q8NER1) (assay: VR1/TRPV1 receptor affinity, capsaicin stimulus (human)). Conditions: @ 5 μM, Tables 8-12, read-out: (f) Ki (human being) [nM] Cap: inhibition (as a percentage).
T1 construct: expressed in transfected cells; host or cells: CHO K1 cells (ECACC), stably transfected
Assay type: cell-based, human being

T1 sequence (Q8NER1 whole entry): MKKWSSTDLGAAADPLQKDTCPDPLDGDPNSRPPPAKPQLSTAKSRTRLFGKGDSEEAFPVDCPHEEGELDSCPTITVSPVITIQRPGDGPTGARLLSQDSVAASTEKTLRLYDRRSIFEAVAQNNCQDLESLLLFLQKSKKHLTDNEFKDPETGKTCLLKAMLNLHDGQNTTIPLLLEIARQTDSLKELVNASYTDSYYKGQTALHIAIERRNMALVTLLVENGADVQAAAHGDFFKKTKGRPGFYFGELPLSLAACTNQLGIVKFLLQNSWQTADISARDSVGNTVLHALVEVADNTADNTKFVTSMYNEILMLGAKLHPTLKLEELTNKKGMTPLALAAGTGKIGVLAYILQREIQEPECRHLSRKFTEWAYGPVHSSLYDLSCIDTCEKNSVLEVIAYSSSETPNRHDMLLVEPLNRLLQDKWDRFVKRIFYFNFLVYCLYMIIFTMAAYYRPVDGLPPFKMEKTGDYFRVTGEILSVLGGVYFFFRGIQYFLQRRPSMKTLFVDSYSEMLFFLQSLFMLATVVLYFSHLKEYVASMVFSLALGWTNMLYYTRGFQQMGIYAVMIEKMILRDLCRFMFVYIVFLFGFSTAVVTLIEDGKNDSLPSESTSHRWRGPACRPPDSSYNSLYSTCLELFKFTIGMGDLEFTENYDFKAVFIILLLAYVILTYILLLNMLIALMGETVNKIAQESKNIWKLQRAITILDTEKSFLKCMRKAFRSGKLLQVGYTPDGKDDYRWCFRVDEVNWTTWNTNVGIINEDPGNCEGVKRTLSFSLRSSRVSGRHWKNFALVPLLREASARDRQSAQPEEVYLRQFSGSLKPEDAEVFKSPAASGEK

Compared with CC(C)(C)c1cc(CNC(=O)Nc2ccc(C(=O)N3CCOCC3)c(F)c2)n(-c2cccc(Cl)c2)n1 [Example E14, 1-[[5-tert-Butyl-2-(3-chlorophenyl)-2H-pyrazol-3-yl]-methyl]-3-[3-fluoro-4-(morpholine-4-carbonyl)-phenyl]-urea], CC(C(=O)NCc1cc(C(C)(C)C)nn1-c1cccc(Cl)c1)c1ccc(C(=O)N2CCOCC2)c(F)c1 (centres unmarked) [Example E17, N-[[5-tert-Butyl-2-(3-chlorophenyl)-2H-pyrazol-3-yl]-methyl]-2-[3-fluoro-4-(morpholine-4-carbonyl)-phenyl]-propionamide] is higher in inhibition at 5 µM: 38% for the first, 42% for the second.

First: CC(C(=O)NCc1cc(C(F)(F)F)nn1-c1cccc(Cl)c1)c1ccc(C(=O)N2CCOCC2)c(F)c1 (centres unmarked) [Example E16, N-[[2-(3-Chlorophenyl)-5-(trifluoromethyl)-2H-pyrazol-3-yl]-methyl]-2-[3-fluoro-4-(morpholine-4-carbonyl)-phenyl]-propionamide]
Second: CC(C(=O)N(C)c1cc(C(F)(F)F)nn1-c1cccc(Cl)c1)c1ccc(C(=O)NC2CCOCC2)c(F)c1 (centres unmarked) [Example E23, 4-[1-[[2-(3-Chlorophenyl)-5-(trifluoromethyl)-2H-pyrazol-3-yl]-methyl-carbamoyl]-ethyl]-2-fluoro-N-tetrahydro-pyran-4-yl-benzamide]
The inhibition at 5 µM of the first is higher: 32% for the first, 24.8% for the second.

Going from CN(C(=O)Nc1ccc(C(=O)NC2CCOCC2)c(F)c1)c1cc(C(F)(F)F)nn1-c1cccc(Cl)c1 [Example E22, 4-[[[2-(3-Chlorophenyl)-5-(trifluoromethyl)-2H-pyrazol-3-yl]-methyl-carbamoyl]amino]-2-fluoro-N-tetrahydro-pyran-4-yl-benzamide] to COc1cc(NC(=O)N(C)c2cc(C(C)(C)C)nn2-c2cccc(Cl)c2)ccc1C(=O)O [Example E56, 4-[[[5-tert-Butyl-2-(3-chlorophenyl)-2H-pyrazol-3-yl]-methyl-carbamoyl]amino]-2-methoxy-benzoic acid], the inhibition at 5 µM rises from 49% to 52%.

Same assay, conditions: Tables 8-12, read-out: (f) Ki (human being) [nM] Cap

First: CC(C(=O)NCc1cc(C(F)(F)F)nn1-c1cccc(Cl)c1)c1ccc(S(C)(=O)=O)c(Cl)c1 (centres unmarked) [Example D5, 2-(3-Chloro-4-methylsulfonyl-phenyl)-N-[[2-(3-chlorophenyl)-5-(trifluoromethyl)-2H-pyrazol-3-yl]-methyl]-propionamide]
Second: CC(C(=O)NCc1cc(C(F)(F)F)nn1-c1cccc(Cl)c1)c1ccc(CS(C)(=O)=O)c(F)c1 (centres unmarked) [Example D6, N-[[2-(3-Chlorophenyl)-5-(trifluoromethyl)-2H-pyrazol-3-yl]-methyl]-2-[3-fluoro-4-(methylsulfonyl-methyl)-phenyl]-propionamide]
The Ki of the first is 5.4-fold lower: 7 nM for the first, 38 nM for the second. The first binds more tightly here.

First: CC(C(=O)NCc1cc(C(C)(C)C)nn1-c1cccc(Cl)c1)c1ccc(CS(C)(=O)=O)c(F)c1 (centres unmarked) [Example D7, N-[[5-tert-Butyl-2-(3-chlorophenyl)-2H-pyrazol-3-yl]-methyl]-2-[3-fluoro-4-(methylsulfonyl-methyl)-phenyl]-propionamide]
Second: CC(C(=O)NCc1cc(C(C)(C)C)nn1-c1ccc(F)c(Cl)c1)c1ccc(CS(C)(=O)=O)c(F)c1 (centres unmarked) [Example D8, N-[[5-tert-Butyl-2-(3-chloro-4-fluoro-phenyl)-2H-pyrazol-3-yl]-methyl]-2-[3-fluoro-4-(methylsulfonyl-methyl)-phenyl]-propionamide]
The Ki of the first is 1.8-fold lower: 27 nM for the first, 48 nM for the second.

First: CC(C(=O)NCc1cc(C(C)(C)C)nn1-c1cccc(F)c1)c1ccc(CS(C)(=O)=O)c(F)c1 (centres unmarked) [Example D9, N-[[5-tert-Butyl-2-(3-fluorophenyl)-2H-pyrazol-3-yl]-methyl]-2-[3-fluoro-4-(methylsulfonyl-methyl)-phenyl]-propionamide]
Second: CC(C(=O)NCc1cc(C(F)(F)F)nn1-c1cccc(F)c1)c1ccc(CS(C)(=O)=O)c(F)c1 (centres unmarked) [Example D10, 2-[3-Fluoro-4-(methylsulfonyl-methyl)-phenyl]-N-[[2-(3-fluorophenyl)-5-(trifluoromethyl)-2H-pyrazol-3-yl]-methyl]-propionamide]
The Ki of the first is 2.5-fold lower: 30 nM for the first, 75 nM for the second. The first binds more tightly here.

CS(=O)(=O)CCc1ccc(NC(=O)NCc2cc(C3CC3)nn2-c2cccc(Cl)c2)cc1F [Example D26, 1-[[2-(3-Chlorophenyl)-5-cyclopropyl-2H-pyrazol-3-yl]-methyl]-3-[3-fluoro-4-(2-methylsulfonyl-ethyl)-phenyl]-urea] and CS(=O)(=O)CCc1ccc(NC(=O)NCc2cc(C(F)(F)F)nn2-c2cccc(Cl)c2)cc1F [Example D27, 1-[[2-(3-Chlorophenyl)-5-(trifluoromethyl)-2H-pyrazol-3-yl]-methyl]-3-[3-fluoro-4-(2-methylsulfonyl-ethyl)-phenyl]-urea] are within 1.5-fold of each other in Ki: 42 nM for the first, 40 nM for the second.

First: CS(=O)(=O)CCc1ccc(NC(=O)NCc2cc(C(F)(F)F)nn2-c2ccc(F)c(Cl)c2)cc1F [Example D28, 1-[[2-(3-Chloro-4-fluoro-phenyl)-5-(trifluoromethyl)-2H-pyrazol-3-yl]-methyl]-3-[3-fluoro-4-(2-methylsulfonyl-ethyl)-phenyl]-urea]
Second: CC(C)(C)c1cc(CNC(=O)Nc2ccc(CCS(C)(=O)=O)c(F)c2)n(-c2cccc(Cl)c2)n1 [Example D29, 1-[[5-tert-Butyl-2-(3-chlorophenyl)-2H-pyrazol-3-yl]-methyl]-3-[3-fluoro-4-(2-methylsulfonyl-ethyl)-phenyl]-urea]
The Ki of the first is 2.5-fold higher: 32 nM for the first, 13 nM for the second.

Going from CC(C)(C)c1cc(CNC(=O)Nc2ccc(CCS(C)(=O)=O)c(F)c2)n(-c2cc(F)cc(F)c2)n1 [Example D31, 1-[[5-tert-Butyl-2-(3,5-difluoro-phenyl)-2H-pyrazol-3-yl]-methyl]-3-[3-fluoro-4-(2-methylsulfonyl-ethyl)-phenyl]-urea] to CC(C)c1cccc(-n2nc(C(F)(F)F)cc2CNC(=O)Nc2ccc(CCS(C)(=O)=O)c(F)c2)c1 [Example D33, 1-[3-Fluoro-4-(2-methylsulfonyl-ethyl)-phenyl]-3-[[2-(3-isopropyl-phenyl)-5-(trifluoromethyl)-2H-pyrazol-3-yl]-methyl]-urea], the Ki falls from 15 nM to 4 nM (3.8-fold). The second binds more tightly here.

CCC(=O)c1ccc(C(C)C(=O)NCc2cc(C(F)(F)F)nn2-c2cccc(F)c2)cc1F (centres unmarked) [Example E1, N-[[2-(3-Fluorophenyl)-5-(trifluoromethyl)-2H-pyrazol-3-yl]-methyl]-2-(3-fluoro-4-propanoyl-phenyl)-propionamide] and CCC(=O)c1ccc(C(C)C(=O)NCc2cc(C(F)(F)F)nn2-c2cccc(OC)c2)cc1F (centres unmarked) [Example E2, 2-(3-Fluoro-4-propanoyl-phenyl)-N-[[2-(3-methoxyphenyl)-5-(trifluoromethyl)-2H-pyrazol-3-yl]-methyl]-propionamide] are within 1.5-fold of each other in Ki: 24 nM for the first, 35 nM for the second.

First: CCC(=O)c1ccc(C(C)C(=O)NCc2cc(C(F)(F)F)nn2-c2ccc(F)c(F)c2)cc1F (centres unmarked) [Example E3, N-[[2-(3,4-Difluoro-phenyl)-5-(trifluoromethyl)-2H-pyrazol-3-yl]-methyl]-2-(3-fluoro-4-propanoyl-phenyl)-propionamide]
Second: CC(C(=O)NCc1cc(C(F)(F)F)nn1-c1cccc(Cl)c1)c1ccc(C(N)=O)c(F)c1 (centres unmarked) [Example E4, 4-[1-[[2-(3-Chlorphenyl)-5-(trifluormethyl)-2H-pyrazol-3-yl]-methyl-carbamoyl]-ethyl]-2-fluoro-benzamide]
The Ki of the first is 7.8-fold higher: 62 nM for the first, 8 nM for the second. The second binds more tightly here.

First: O=C(NCc1cc(C(F)(F)F)nn1-c1cccc(Cl)c1)Nc1ccc(C(=O)NCCO)c(F)c1 [Example E18]
Second: CC(C(=O)NCc1cc(C(C)(C)C)nn1-c1cccc(Cl)c1)c1ccc(C(=O)Nc2ccc(F)cc2)c(F)c1 (centres unmarked) [Example E44, 4-[1-[[5-tert-Butyl-2-(3-chlorophenyl)-2H-pyrazol-3-yl]-methyl-carbamoyl]-ethyl-]-2-fluoro-N-(4-fluorophenyl)-benzamide]
The Ki of the first is 37-fold higher: 37 nM for the first, 1 nM for the second.

Compared with CC(C(=O)NCc1cc(C(F)(F)F)nn1-c1cccc(Cl)c1)c1ccc(C(=O)Nc2ccc(F)cc2)c(F)c1 (centres unmarked) [Example E45, 4-[1-[[2-(3-Chlorophenyl)-5-(trifluoromethyl)-2H-pyrazol-3-yl]-methyl-carbamoyl]-ethyl]-2-fluoro-N-(4-fluorophenyl)-benzamide], O=Cc1ccc(NC(=O)NCc2cc(C(F)(F)F)nn2-c2cccc(Cl)c2)cc1F [Example E61, 1-((1-(3-chlorophenyl)-3-(trifluoromethyl)-1H-pyrazol-5-yl)methyl)-3-(3-fluoro-4-formylphenyl)urea] is 77-fold higher in Ki: 0.3 nM for the first, 23 nM for the second. The first binds more tightly here.

First: N-(3-Chlorophenyl)-4-[1-[[2-(3-chlorophenyl)-5-(trifluoromethyl)-2H-pyrazol-3-yl]-methyl-carbamoyl]-ethyl]-benzamide [Example E32]
Second: N-(4-Chlorophenyl)-4-[1-[[2-(3-chlorophenyl)-5-(trifluoromethyl)-2H-pyrazol-3-yl]-methyl-carbamoyl]-ethyl]-2-fluoro-benzamide [Example E46]
The Ki of the first is 24-fold higher: 48 nM for the first, 2 nM for the second. The second binds more tightly here.

Compared with “N-(4-Chlorophenyl)-4-[1-[[2-(3-chlorophenyl)-5-(trifluoromethyl)-2H-pyrazol-3-yl]-methyl-carbamoyl]-ethyl]-benzamide [Example E33]”, “N-[[2-(3-Chlorophenyl)-5-cyclopropyl-2H-pyrazol-3-yl]-methyl]-2-[3-fluoro-4-(methanesulfonamido-methyl)-phenyl]-propionamide [Example B4]” is 10-fold higher in Ki: 6 nM for the first, 61 nM for the second.

Compound “N-[[4-[[[5-tert-Butyl-2-(3-chlorophenyl)-2H-pyrazol-3-yl]-methyl-carbamoyl]amino]-2-fluoro-phenyl]-methyl]-acetamide [Example B34]” has a Ki of 15 nM.

What follows are compounds tested against T1, vanilloid receptor 1 (VR1/TRPV1 receptor) (assay: VR1/TRPV1 receptor affinity, NADA stimulus (human)). Conditions: N-arachidonoyl dopamine; read-out: Ki (human being) [nM] NADA.
Assay type: cell-based

Compound CCCCCCn1nc(C(C)(C)C)cc1CNC(=O)C(C)c1ccc(NS(C)(=O)=O)c(F)c1 (centres unmarked) [Example 5, N-((3-tert-butyl-1-hexyl-1H-pyrazol-5-yl)methyl)-2-(3-fluoro-4-(methylsulfonamido)phenyl)propanamide] has a Ki of 4.99 nM.
